Laboratory results: PMC7559477, “Zinc Binding by Histatin 5 Promotes Fungicidal Membrane Disruption in C. albicans and C. glabrata” (Journal of Fungi, 2020)
Where no end group is shown, it is not given here.

How the values were obtained:
[1] = tested on: Candida glabrata strain Cg931010; type: cell-based; settings: strain Cg931010, 18 h
Experimental: (§1) Experiments were carried out with Candida albicans strain SC5314 [41] or Candida glabrata strain Cg931010 [42]. Liquid and solid pre-mixed yeast-peptone-dextrose media was used to grow yeast cells (YPD and YPD-Agar, respectively) (Fisher Scientific, Waltham, MA, USA). All media was prepared in deionized water with 50 µg/ mL supplemented uridine (Sigma Aldrich, St. Louis, MO, USA), and sterilized by autoclave. Metal salt solutions of ZnSO4·7H2O (Fisher Scientific, Waltham, MA, USA) were made in High-performance liquid chromatography (HPLC)-grade water (JT Baker, Phillipsburg, NJ, USA) and used within one day of preparation. […]
(§2) Cells (C. albicans or C. glabrata) were cultured as previously described. […] Significance of differences in killing between Zn^2+ and Zn^2+-free samples were calculated using one-way ANOVA with Sidak’s multiple comparisons test.
Figure 6 Zinc greatly increases Hst 5 and P113 killing of C. glabrata, and induces almost immediate ATP efflux. […] Cells were removed from samples via centrifugation and aliquots of supernatant were taken at 1 and 10 min time points to measure extracellular ATP by luminescence. […] Significance of differences in killing and ATP efflux were calculated using one way ANOVA with Sidak’s multiple comparison test. * indicates p ≤ 0.05, **** indicates p ≤ 0.0001

[2] = tested on: Candida albicans (SC5314); assay: Extracellular ATP quantification (ATP efflux), C. albicans; type: cell-based; settings: 0.88 fmol/cell; for ATP efflux with added Zn2+: 1:2 ZnSO4:peptide, 10 mM NaPB pH 7.4, words = versus peptide alone; for total ATP efflux: peptide alone, 10 mM NaPB pH 7.4, luminescence
Experimental: (§3) Candida albicans (SC5314) or Candida glabrata (Cg931010) cells were prepared as for peptide uptake assays, with the exception that cells were added to samples at a dosage of 0.88 fmol peptide/cell in a 1:2 ratio of ZnSO4:peptide. After samples were mixed, each was immediately centrifuged for 2 min at 6000× g at room temperature, after which 10 µL supernatant was removed to new tubes and added to 84 µL boiling TE buffer (50 mM Tris pH 7.5, 2 mM EDTA pH 8) (1-min time point). Pelleted cells were resuspended with vortexing. After this, samples were incubated at 30 °C (220 rpm) and removed from incubation for a 10-min time point. Samples in TE buffer were boiled for two more minutes and stored on ice for quantitation. Then, 25µL of each sample were added to 10 µL Staybrite adenosine triphosphate (ATP) assay mix and 65 µL assay buffer (Biovision, Milpitas, CA, USA), and luminescence was immediately measured using a FlexStation 3 plate reader (Molecular Devices, San Jose, CA, USA). Experiments were carried out on at least three separate days. Data were interpolated using a standard curve to determine moles of ATP in each sample. Significant differences between Zn^2+ added and Zn^2+-free samples at each time point were determined using one-way ANOVA and Sidak’s multiple comparisons test.
Figure 5 Zinc induces almost immediate ATP efflux. C. albicans SC5314 bioluminescent ATP efflux assay. Cells were treated at 30 °C with 0.88 fmol/ cell. Hst 5 (red), Hst 5ΔMB (blue), or P113 (green) in 10 mM sodium phosphate buffer pH 7.4 with or without added Zn^2+ at a one to two peptides ratio (hatched). Cells were removed from samples via centrifugation and aliquots of supernatant were taken at 1 min and 10 min time points to measure extracellular ATP by luminescence. Experiments were repeated on at least three separate days and averaged. Significance of differences in ATP efflux calculated using one way ANOVA with Sidak’s multiple comparison test. ** indicates p ≤ 0.01, *** indicates p ≤ 0.001.

C. albicans cells = assay: Peptide uptake (cell association) assay; type: cell-based, Candida albicans; settings: 0.44 fmol/cell, 30 °C, up to 20 min, initial binding subtracted
Experimental: as §1
C. albicans cells were added to pre-incubated peptides (30 min, 20 °C) alone or at a 1 Zn^2+:2 peptide ratio, and additionally to Hst 5 at a 3 Zn^2+:2 peptide ratio, using a dose of 0.44 fmol peptide/cell. After cells were added, samples were vortexed briefly and immediately centrifuged for 2 min at 6000× g at 20 °C, after which 10 µL supernatant was removed to new tubes and stored at 4 °C for quantification. […] Protein concentration in supernatant samples was measured by NanoDrop. […] Significance of differences in uptake rate and binding between zinc added and zinc free samples were calculated using two-way ANOVA with Sidak’s multiple comparisons test. […]

[3] = tested on: Candida albicans strain SC5314; assay: Candidacidal assay, C. albicans; type: cell-based; settings: 0.44 fmol/cell, 1 Zn2+ to 2 peptides, 1 h at 30 °C, 10 mM NaPB pH 7.4; words = versus peptide alone
Experimental: as §1, §2
(A) Candidacidal assays of C. albicans SC5314 cells with 1 h incubation at 30 °C of Hst 5 (red), Hst 5ΔMB (blue), and P113 (green) at dosages of 0.44, 3.75, 7.5, 15, and 30 fmol/cell in 10 mM sodium phosphate buffer pH 7.4. […] Significance of differences in killing activity were calculated using one way ANOVA with Sidak’s multiple comparisons test. * indicates p ≤ 0.05, ** indicates p ≤ 0.01, **** indicates p ≤ 0.0001.

[4] = Peptide solubility assay (Zn2+-induced precipitation from NaPB); type: physicochemical; settings: 15 µM peptide in 10 mM NaPB pH 7.4, 30 min at room temperature (20 °C), centrifuged 20000 x g 10 min, supernatant by NanoDrop A205, triplicate, averaged
Experimental: Aggregation was quantified by measuring peptide precipitation from NaPB. Molar ratios of [0:0], [0:1], [1:2], [1:1], [2:1], [3:1], and [4:1] ZnSO4 to 15 µM peptide were used and samples were incubated for 30 min at room temperature (20 °C) before centrifugation. Samples were spun at 20000× g for 10 min at room temperature and the protein concentrations of the supernatants were subsequently measured using microvolume spectrophotometry (NanoDrop One, Thermofisher Scientific, Waltham, MA, USA) Data were cleaned using robust regression and outlier removal (ROUT) with Q set to 1%. Cleaned data were baseline corrected by subtracting peptide- and metal- free NaPB (0:0). […] Percent aggregation out of total peptide added was calculated. […] Statistical differences between the peptides at each metal salt titration were calculated using two-way ANOVA with Tukey’s multiple comparison test.
Figure 2 The three Hsts are all soluble at a physiological ratio of Zn^2+ to peptide but differ in relative Zn^2+ affinity. […] Peptide solubility was measured via NanoDrop A205 after removal of insoluble aggregates by centrifugation. […] Absorbance of Zincon at 621 nm was measured as an inverse indicator of relative peptide affinity, as Zincon has a blue color when bound to zinc. […]

[5] = Zinc-binding competition assay with Zincon; settings: competition with Zincon 1:1, 20 µM peptide, 10 mM NaPB pH 7.4, ZnSO4 titration, absorbance at 621 nm; triplicate, averaged
Experimental: Binding competition assays were carried out utilizing the colorimetric copper and Zn^2+ binding dye Zincon. Peptides (20 µM) were mixed with Zincon at a 1:1 ratio and titrated with increasing equivalents of ZnSO4. Absorbance at 621 nm was measured at each addition of metal salt using a Lambda 25 UV/Vis spectrophotometer (Perkin Elmer, Waltham, MA, USA). Data were curve fit using a one site competition equation.
Figure 2 The three Hsts are all soluble at a physiological ratio of Zn^2+ to peptide but differ in relative Zn^2+ affinity. (A) Percent solubility of 15 µM Hst 5 (red), Hst 5ΔMB (blue), and P113 (green) in 10 mM sodium phosphate buffer pH 7.4 with increasing ratio of Zn^2+ incubated at room temperature for 30 min. Peptide solubility was measured via NanoDrop A205 after removal of insoluble aggregates by centrifugation. (B) Binding competition assay with Zincon and peptides at 20 µM in 10 mM sodium phosphate buffer pH 7.4 to establish relative affinity of Hst 5 (red), Hst 5ΔMB (blue), and P113 (green) for Zn^2+ at increasing molar ratios. Absorbance of Zincon at 621 nm was measured as an inverse indicator of relative peptide affinity, as Zincon has a blue color when bound to zinc. Experiments were performed in triplicate and averaged.

[6] = tested on: Candida glabrata (Cg931010); assay: Extracellular ATP quantification (ATP efflux), C. glabrata; type: cell-based; settings: 0.88 fmol/cell
Experimental: as §3, with “test. […]” for “test.”

Molecule | killing less than in C. albicans under the same conditions [1] | ATP efflux with added Zn2+ ([2]; 1 min) | total ATP efflux ([2]; 1 min, at least three days, averaged) | ATP efflux with added Zn2+ ([2]; 10 min at 30 °C) | total ATP efflux ([2]; 10 min at 30 °C) | total uptake with added Zn2+ (C. albicans cells; 1 Zn2+:2 peptide, 10 mM NaPB pH 7.4, words = versus peptide alone) | total uptake (C. albicans cells; peptide alone, 10 mM NaPB pH 7.4, supernatant by NanoDrop, at least three days, averaged) | killing with added Zn2+ [3] | precipitation of peptide ([4]; 1:1 Zn2+:peptide) | precipitation of peptide ([4]; 4:1 Zn2+:peptide) | relative affinity for Zn2+ [5] | ATP efflux total ([6]; 1 min, peptide alone, 10 mM NaPB pH 7.4, luminescence) | ATP efflux with added Zn2+ ([6]; 10 min, 1:2 Zn2+:peptide, 10 mM NaPB pH 7.4, words = versus 1 min)
C[C@H](NC(=O)[C@H](Cc1c[nH]cn1)NC(=O)[C@H](CO)NC(=O)[C@@H](N)CC(=O)O)C(=O)N[C@@H](CCCCN)C(=O)N[C@@H](CCCNC(=N)N)C(=O)N[C@@H](Cc1c[nH]cn1)C(=O)N[C@@H](Cc1c[nH]cn1)C(=O)NCC(=O)N[C@@H](Cc1ccc(O)cc1)C(=O)N[C@@H](CCCCN)C(=O)N[C@@H](CCCNC(=N)N)C(=O)N[C@@H](CCCCN)C(=O)N[C@@H](Cc1ccccc1)C(=O)N[C@@H](Cc1c[nH]cn1)C(=O)N[C@@H](CCC(=O)O)C(=O)N[C@@H](CCCCN)C(=O)N[C@@H](Cc1c[nH]cn1)C(=O)N[C@@H](Cc1c[nH]cn1)C(=O)N[C@@H](CO)C(=O)N[C@@H](Cc1c[nH]cn1)C(=O)N[C@@H](CCCNC(=N)N)C(=O)NCC(=O)N[C@@H](Cc1ccc(O)cc1)C(=O)O [Hst 5, Histatin 5] | 40% |  |  |  |  |  |  |  |  |  |  |  | 
QQQAKRHHGYKRKFQQQQQSHRGY [Hst 5ΔMB] |  | did not significantly increase | 85 pmol | did not significantly increase | 257 pmol | 90 pmol | 370 pmol | did not significantly alter | 14% | 25% | lowest affinity | ≤ 30 pmol | over 100 pmol
